Measured values: patent US8906925B2, “Pyrido[4,3-B]indoles containing rigid moieties” (Medivation Technologies, Inc., priority 2008, dated 2014)

Experiments:
[1] = biological target: T1, human recombinant serotonin (5-Hydroxytryptamine) 5-HT2C receptor (Homo sapiens, UniProt P28335); assay: Serotonin 5-HT2C radioligand binding ([3H]Mesulergine); conditions: compound at 1 μM; read-out: Inhibition of ligand binding, Serotonin 5-HT2C (percent inhibition of specific binding)
T1 construct: expressed in transfected cells; host or cells: Chinese hamster ovary (CHO-K1) cells
T1 sequence (P28335 33-458): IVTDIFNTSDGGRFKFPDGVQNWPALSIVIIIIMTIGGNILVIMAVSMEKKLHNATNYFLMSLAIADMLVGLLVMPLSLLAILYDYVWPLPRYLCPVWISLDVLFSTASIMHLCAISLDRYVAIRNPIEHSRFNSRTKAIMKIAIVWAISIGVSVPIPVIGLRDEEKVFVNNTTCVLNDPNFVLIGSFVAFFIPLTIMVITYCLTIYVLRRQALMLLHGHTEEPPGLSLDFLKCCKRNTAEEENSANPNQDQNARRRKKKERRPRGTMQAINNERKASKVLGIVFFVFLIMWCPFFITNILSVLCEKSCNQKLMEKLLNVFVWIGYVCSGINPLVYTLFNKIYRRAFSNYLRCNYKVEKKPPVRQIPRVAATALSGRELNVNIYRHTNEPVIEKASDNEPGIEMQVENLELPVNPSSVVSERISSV
How it was run: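 Compounds tested at 1 μM or lower (1% DMSO vehicle) for displacement of 1 nM [3H]Mesulergine over 60 min at 25° C. Specific binding determined by filtration counting, with 1 μM Mianserin defining non-specific binding; values are percent inhibition.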

[2] = biological target: T2, human recombinant serotonin (5-Hydroxytryptamine) 5-HT2A receptor (Homo sapiens, UniProt P28223); assay: Serotonin 5-HT2A radioligand binding ([3H]Ketanserin); conditions: read-out: Inhibition of ligand binding, Serotonin 5-HT2A (percent inhibition of specific binding), compound at 1 μM
T2 construct: expressed in transfected cells; host or cells: Chinese hamster ovary (CHO-K1) cells
Protocol: Compounds of the invention were incubated with 0.5 nM [^3H]Ketanserin for 60 min. at 25° C. Non-specific binding was estimated in the presence of 1 μM Mianserin. Receptor proteins were filtered and washed, the filters were then counted to determine [^3H]Ketanserin specifically bound.

[3] = biological target: human dopamine D2L receptor (Homo sapiens, UniProt P14416); assay: Dopamine D2L radioligand binding ([3H]Spiperone); conditions: percent inhibition of specific binding; compound at 1 μM; read-out: Inhibition of ligand binding, Dopamine D2L
Source text: Non-specific binding was estimated in the presence of […] Haloperidol. Receptor proteins were filtered and washed, the filters were then counted to determine [^3H]Spiperone specifically bound. […] Biochemical assay results are presented as the percent inhibition of specific binding in Table 9.

[4] = biological target: human recombinant serotonin (5-Hydroxytryptamine) 5-HT7 receptor (Homo sapiens, UniProt P34969); assay: Serotonin 5-HT7 radioligand binding ([3H]LSD); conditions: compound at 1 μM; read-out: Inhibition of ligand binding, Serotonin 5-HT7 (percent inhibition of specific binding)
Source text: Receptor proteins were filtered and washed, the filters were then counted to determine [^3H]LSD specifically bound.

histamine receptor H1 = histamine receptor H1 (Homo sapiens, UniProt P35367); assay: Histamine H1 radioligand binding ([3H]Pyrilamine); conditions: read-out: Histamine Binding (1 μM) H1, percent inhibition of specific binding, 1 μM
How it was run: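 Values are percent inhibition of specific [3H]pyrilamine (1.2 nM) binding with compounds at ≤1 μM (1% DMSO vehicle); 180 min incubation at 25 °C, pH 7.4 Tris buffer, on CHO-expressed human H1 receptor; 1 μM pyrilamine defined nonspecific binding, bound ligand counted after filtration.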

[5] = biological target: T3, human recombinant histamine H2 receptor (Homo sapiens, UniProt P25021); assay: Histamine H2 radioligand binding ([125I]Aminopotentidine); conditions: read-out: Histamine Binding (1 μM) H2, percent inhibition of specific binding, 1 μM
T3 construct: expressed in transfected cells; host or cells: Chinese hamster ovary (CHO) K1 cells
Protocol: To evaluate in radioligand binding assays the activity of compounds of the invention, human recombinant histamine H2 receptor expressed in Chinese hamster ovary (CHO) K1 cells (Ruat, M., Proc. Natl. Acad. Sci. USA. 87(5):1658, 1990) in a 50 mM Phosphate buffer, pH 7.4 was used. Compounds of the invention were incubated with 0.1 nM [^125I]Aminopotentidine for 120 min. at 25° C. Non-specific binding was estimated in the presence of 3 μM Tiotidine. Receptor proteins were filtered and washed, the filters were then counted to determine [^125I]Aminopotentidine specifically bound.

[6] = biological target: T4, human recombinant serotonin (5-Hydroxytryptamine) 5-HT6 receptor (Homo sapiens, UniProt P50406); assay: Serotonin 5-HT6 radioligand binding ([3H]LSD); conditions: compound at 1 μM; read-out: Inhibition of ligand binding, Serotonin 5-HT6 (percent inhibition of specific binding)
T4 construct: expressed in transfected cells; host or cells: human HeLa cells
Protocol: Compounds of the invention were incubated with 1.5 nM [3H]Lysergic acid diethylamide (LSD) for 120 min. at 37° C. […] Receptor proteins were filtered and washed, the filters were then counted to determine [3H]LSD specifically bound. Compounds were screened at 1 μM or lower, using 1% DMSO as vehicle. Biochemical assay results are presented as the percent inhibition of specific binding in Table 10.

Chain of human dopamine D2L receptor (P14416 whole entry): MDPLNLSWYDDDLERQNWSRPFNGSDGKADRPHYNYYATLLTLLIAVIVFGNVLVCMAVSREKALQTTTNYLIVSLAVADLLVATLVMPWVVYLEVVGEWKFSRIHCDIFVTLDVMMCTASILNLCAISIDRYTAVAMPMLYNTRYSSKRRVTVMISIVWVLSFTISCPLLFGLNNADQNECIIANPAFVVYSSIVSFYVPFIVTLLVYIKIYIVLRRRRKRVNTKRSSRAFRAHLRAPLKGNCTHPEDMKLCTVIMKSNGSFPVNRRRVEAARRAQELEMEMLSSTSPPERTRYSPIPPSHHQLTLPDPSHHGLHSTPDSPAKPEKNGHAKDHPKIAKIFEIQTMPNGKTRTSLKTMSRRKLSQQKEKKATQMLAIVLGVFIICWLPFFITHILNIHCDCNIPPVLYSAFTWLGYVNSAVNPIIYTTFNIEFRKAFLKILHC
Chain of human recombinant serotonin (5-Hydroxytryptamine) 5-HT7 receptor (P34969 whole entry): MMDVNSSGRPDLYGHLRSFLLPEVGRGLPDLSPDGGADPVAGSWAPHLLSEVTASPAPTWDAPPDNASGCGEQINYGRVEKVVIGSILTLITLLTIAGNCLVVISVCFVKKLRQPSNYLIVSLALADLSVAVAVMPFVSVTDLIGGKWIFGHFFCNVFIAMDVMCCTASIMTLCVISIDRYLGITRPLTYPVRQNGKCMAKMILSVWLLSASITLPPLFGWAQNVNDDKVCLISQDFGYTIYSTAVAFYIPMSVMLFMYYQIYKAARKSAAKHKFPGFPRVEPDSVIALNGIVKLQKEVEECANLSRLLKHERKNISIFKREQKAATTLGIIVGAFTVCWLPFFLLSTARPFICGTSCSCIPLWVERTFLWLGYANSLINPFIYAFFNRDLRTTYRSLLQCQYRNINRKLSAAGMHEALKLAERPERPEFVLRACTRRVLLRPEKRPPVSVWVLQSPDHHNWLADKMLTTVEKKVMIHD
T4 sequence (P50406 whole entry): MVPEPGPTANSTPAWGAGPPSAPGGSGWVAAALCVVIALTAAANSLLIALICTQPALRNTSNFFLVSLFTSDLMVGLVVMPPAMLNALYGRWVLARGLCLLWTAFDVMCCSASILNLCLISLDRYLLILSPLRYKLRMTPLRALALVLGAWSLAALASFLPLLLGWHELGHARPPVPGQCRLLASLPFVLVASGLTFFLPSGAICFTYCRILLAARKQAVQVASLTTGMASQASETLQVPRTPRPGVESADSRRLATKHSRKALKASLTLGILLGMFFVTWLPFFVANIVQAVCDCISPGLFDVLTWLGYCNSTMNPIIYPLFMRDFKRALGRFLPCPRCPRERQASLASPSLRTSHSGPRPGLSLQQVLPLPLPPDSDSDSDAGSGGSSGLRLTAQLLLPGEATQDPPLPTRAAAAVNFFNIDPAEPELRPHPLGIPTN
T3 sequence (P25021 whole entry): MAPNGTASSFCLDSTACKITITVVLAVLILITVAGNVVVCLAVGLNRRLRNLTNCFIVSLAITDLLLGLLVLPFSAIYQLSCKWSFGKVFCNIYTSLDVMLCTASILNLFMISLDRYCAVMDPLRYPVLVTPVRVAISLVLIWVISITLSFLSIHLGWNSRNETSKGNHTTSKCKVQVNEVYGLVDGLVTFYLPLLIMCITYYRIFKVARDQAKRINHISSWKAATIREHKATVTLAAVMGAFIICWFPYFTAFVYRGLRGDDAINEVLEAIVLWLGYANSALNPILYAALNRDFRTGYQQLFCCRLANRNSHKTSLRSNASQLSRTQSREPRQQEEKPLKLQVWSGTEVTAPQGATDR
T2 sequence (P28223 whole entry): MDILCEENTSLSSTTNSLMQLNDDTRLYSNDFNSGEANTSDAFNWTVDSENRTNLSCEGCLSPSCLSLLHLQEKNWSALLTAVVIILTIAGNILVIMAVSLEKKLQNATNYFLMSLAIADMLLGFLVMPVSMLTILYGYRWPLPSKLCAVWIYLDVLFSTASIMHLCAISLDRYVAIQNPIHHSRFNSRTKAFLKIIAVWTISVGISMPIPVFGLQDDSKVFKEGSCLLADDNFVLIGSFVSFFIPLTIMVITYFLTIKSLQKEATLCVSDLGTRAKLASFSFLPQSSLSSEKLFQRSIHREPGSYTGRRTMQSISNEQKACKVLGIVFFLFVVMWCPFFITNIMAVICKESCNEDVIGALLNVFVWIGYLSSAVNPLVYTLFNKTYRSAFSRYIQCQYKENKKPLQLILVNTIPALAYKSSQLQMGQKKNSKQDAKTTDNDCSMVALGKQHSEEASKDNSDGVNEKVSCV
Chain of histamine receptor H1 (P35367 whole entry): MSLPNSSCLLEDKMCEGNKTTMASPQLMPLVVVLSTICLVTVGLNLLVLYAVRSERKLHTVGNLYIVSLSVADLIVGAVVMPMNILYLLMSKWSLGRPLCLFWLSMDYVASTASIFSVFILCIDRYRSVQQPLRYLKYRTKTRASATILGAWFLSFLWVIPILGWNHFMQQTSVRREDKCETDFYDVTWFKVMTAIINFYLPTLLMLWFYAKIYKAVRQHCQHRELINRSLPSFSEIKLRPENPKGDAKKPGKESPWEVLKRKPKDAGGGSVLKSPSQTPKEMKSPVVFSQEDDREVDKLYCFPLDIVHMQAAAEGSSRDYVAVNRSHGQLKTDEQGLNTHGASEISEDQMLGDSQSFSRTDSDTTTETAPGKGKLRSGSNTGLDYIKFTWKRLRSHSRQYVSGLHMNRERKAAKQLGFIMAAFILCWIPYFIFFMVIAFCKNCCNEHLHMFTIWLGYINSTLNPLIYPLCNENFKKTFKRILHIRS

SMILES: C/C(=C\n1c2c(c3c(Cl)c(Cl)ccc31)CN(C)CC2)c1ccc(F)cc1 [Compound 232, (E)-8,9-dichloro-5-(2-(4-fluorophenyl)prop-1-enyl)-2-methyl-2,3,4,5-tetrahydro-1H-pyrido[4,3-b]indole]
- inhibition at 1 µM [1]: 98%
- inhibition at 1 µM [2]: 99%
- inhibition at 1 µM [3]: 91%
- inhibition at 1 µM [4]: 84%
- inhibition at 1 µM (histamine receptor H1): 71%
- inhibition at 1 µM [5]: 95%
- inhibition at 1 µM [6]: 103%

SMILES: C/C(=C/n1c2c(c3cc(Cl)ccc31)CN(C)CC2)c1cccc(F)c1 [Compound 233, (Z)-8-chloro-5-(2-(3-fluorophenyl)prop-1-enyl)-2-methyl-2,3,4,5-tetrahydro-1H-pyrido[4,3-b]indole]
- inhibition at 1 µM [1]: 101%
- inhibition at 1 µM [2]: 97%
- inhibition at 1 µM [3]: 48%
- inhibition at 1 µM [4]: 95%
- inhibition at 1 µM (histamine receptor H1): 85%
- inhibition at 1 µM [5]: 99%
- inhibition at 1 µM [6]: 102%

SMILES: C/C(=C\n1c2c(c3cc(Cl)ccc31)CN(C)CC2)c1cccc(F)c1 [Compound 234, (E)-8-chloro-5-(2-(3-fluorophenyl)prop-1-enyl)-2-methyl-2,3,4,5-tetrahydro-1H-pyrido[4,3-b]indole]
- inhibition at 1 µM [1]: 102%
- inhibition at 1 µM [2]: 100%
- inhibition at 1 µM [3]: 73%
- inhibition at 1 µM [4]: 99%
- inhibition at 1 µM (histamine receptor H1): 69%
- inhibition at 1 µM [5]: 94%
- inhibition at 1 µM [6]: 101%

SMILES: C/C(=C\n1c2c(c3cc(C)ccc31)CN(C)CC2)c1ccc(O)cc1 [Compound 235, (E)-4-(1-(2,8-dimethyl-3,4-dihydro-1H-pyrido[4,3-b]indol-5(2H)-yl)prop-1-en-2-yl)phenol]
- inhibition at 1 µM [1]: 101%
- inhibition at 1 µM [2]: 98%
- inhibition at 1 µM [3]: 80%
- inhibition at 1 µM [4]: 96%
- inhibition at 1 µM (histamine receptor H1): 73%
- inhibition at 1 µM [5]: 96%
- inhibition at 1 µM [6]: 99%

SMILES: COc1ccc(/C(C)=C/n2c3c(c4cc(C)ccc42)CN(C)CC3)cc1 [Compound 236, (E)-5-(2-(4-methoxyphenyl)prop-1-enyl)-2,8-dimethyl-2,3,4,5-tetrahydro-1H-pyrido[4,3-b]indole]
- inhibition at 1 µM [1]: 102%
- inhibition at 1 µM [2]: 99%
- inhibition at 1 µM [3]: 76%
- inhibition at 1 µM [4]: 93%
- inhibition at 1 µM (histamine receptor H1): 20%
- inhibition at 1 µM [5]: 99%
- inhibition at 1 µM [6]: 98%

SMILES: C/C(=C/n1c2c(c3cc(Cl)ccc31)CN(C)CC2)c1ccccc1Cl [Compound 237, (Z)-8-chloro-5-(2-(2-chlorophenyl)prop-1-enyl)-2-methyl-2,3,4,5-tetrahydro-1H-pyrido[4,3-b]indole]
- inhibition at 1 µM [1]: 98%
- inhibition at 1 µM [2]: 101%
- inhibition at 1 µM [3]: 45%
- inhibition at 1 µM [4]: 100%
- inhibition at 1 µM (histamine receptor H1): 88%
- inhibition at 1 µM [5]: 95%
- inhibition at 1 µM [6]: 101%

SMILES: C/C(=C\n1c2c(c3cc(Cl)ccc31)CN(C)CC2)c1ccccc1Cl [Compound 238, (E)-8-chloro-5-(2-(2-chlorophenyl)prop-1-enyl)-2-methyl-2,3,4,5-tetrahydro-1H-pyrido[4,3-b]indole]
- inhibition at 1 µM [1]: 99%
- inhibition at 1 µM [2]: 101%
- inhibition at 1 µM [3]: 81%
- inhibition at 1 µM [4]: 98%
- inhibition at 1 µM (histamine receptor H1): 58%
- inhibition at 1 µM [5]: 93%
- inhibition at 1 µM [6]: 99%

SMILES: COc1ccc2c(c1)c1c(n2/C=C(/C)c2ccncc2)CCN(C)C1 [Compound 239, (Z)-8-methoxy-2-methyl-5-(2-(pyridin-4-yl)prop-1-enyl)-2,3,4,5-tetrahydro-1H-pyrido[4,3-b]indole]
- inhibition at 1 µM [1]: 93%
- inhibition at 1 µM [2]: 93%
- inhibition at 1 µM [3]: 39%
- inhibition at 1 µM [4]: 98%
- inhibition at 1 µM (histamine receptor H1): 14%
- inhibition at 1 µM [5]: 28%
- inhibition at 1 µM [6]: 104%

SMILES: C/C(=C/n1c2c(c3cc(Cl)ccc31)CN(C)CC2)c1cc(F)c(F)cc1Cl [Compound 240, (Z)-8-chloro-5-(2-(2-chloro-4,5-difluorophenyl)prop-1-enyl)-2-methyl-2,3,4,5-tetrahydro-1H-pyrido[4,3-b]indole]
- inhibition at 1 µM [1]: 99%
- inhibition at 1 µM [2]: 99%
- inhibition at 1 µM [3]: 34%
- inhibition at 1 µM [4]: 99%
- inhibition at 1 µM (histamine receptor H1): 95%
- inhibition at 1 µM [5]: 99%
- inhibition at 1 µM [6]: 104%

SMILES: C/C(=C\n1c2c(c3cc(Cl)ccc31)CN(C)CC2)c1cc(F)c(F)cc1Cl [Compound 241, (E)-8-chloro-5-(2-(2-chloro-4,5-difluorophenyl)prop-1-enyl)-2-methyl-2,3,4,5-tetrahydro-1H-pyrido[4,3-b]indole]
- inhibition at 1 µM [1]: 100%
- inhibition at 1 µM [2]: 93%
- inhibition at 1 µM [3]: 47%
- inhibition at 1 µM [4]: 96%
- inhibition at 1 µM (histamine receptor H1): 89%
- inhibition at 1 µM [5]: 98%
- inhibition at 1 µM [6]: 101%

SMILES: C/C(=C/n1c2c(c3cc(C)ccc31)CN(C)CC2)c1ccccc1Cl [Compound 242, (Z)-5-(2-(2-chlorophenyl)prop-1-enyl)-2,8-dimethyl-2,3,4,5-tetrahydro-1H-pyrido[4,3-b]indole]
- inhibition at 1 µM [1]: 99%
- inhibition at 1 µM [2]: 98%
- inhibition at 1 µM [3]: 55%
- inhibition at 1 µM [4]: 100%
- inhibition at 1 µM (histamine receptor H1): 88%
- inhibition at 1 µM [5]: 97%
- inhibition at 1 µM [6]: 107%

SMILES: C/C(=C\n1c2c(c3cc(Cl)c(Cl)cc31)CN(C)CC2)c1ccncc1 [Compound 243, (E)-7,8-dichloro-2-methyl-5-(2-(pyridin-4-yl)prop-1-enyl)-2,3,4,5-tetrahydro-1H-pyrido[4,3-b]indole]
- inhibition at 1 µM [1]: 99%
- inhibition at 1 µM [2]: 100%
- inhibition at 1 µM [3]: 96%
- inhibition at 1 µM [4]: 97%
- inhibition at 1 µM (histamine receptor H1): 95%
- inhibition at 1 µM [5]: 90%
- inhibition at 1 µM [6]: 107%

SMILES: C/C(=C/n1c2c(c3cc(Cl)c(Cl)cc31)CN(C)CC2)c1ccncc1 [Compound 244, (Z)-7,8-dichloro-2-methyl-5-(2-(pyridin-4-yl)prop-1-enyl)-2,3,4,5-tetrahydro-1H-pyrido[4,3-b]indole]
- inhibition at 1 µM [1]: 99%
- inhibition at 1 µM [2]: 103%
- inhibition at 1 µM [3]: 86%
- inhibition at 1 µM [4]: 99%
- inhibition at 1 µM (histamine receptor H1): 87%
- inhibition at 1 µM [5]: 88%
- inhibition at 1 µM [6]: 106%

SMILES: C/C(=C\n1c2c(c3c(Cl)c(Cl)ccc31)CN(C)CC2)c1ccncc1 [Compound 245, (E)-8,9-dichloro-2-methyl-5-(2-(pyridin-4-yl)prop-1-enyl)-2,3,4,5-tetrahydro-1H-pyrido[4,3-b]indole]
- inhibition at 1 µM [1]: 96%
- inhibition at 1 µM [2]: 102%
- inhibition at 1 µM [3]: 92%
- inhibition at 1 µM [4]: 74%
- inhibition at 1 µM (histamine receptor H1): 60%
- inhibition at 1 µM [5]: 71%
- inhibition at 1 µM [6]: 103%

SMILES: COc1ccc2c(c1)c1c(n2/C=C(\C)c2ccncc2)CCN(C)C1 [Compound 246, (E)-8-methoxy-2-methyl-5-(2-(pyridin-4-yl)prop-1-enyl)-2,3,4,5-tetrahydro-1H-pyrido[4,3-b]indole]
- inhibition at 1 µM [1]: 94%
- inhibition at 1 µM [2]: 97%
- inhibition at 1 µM [3]: 57%
- inhibition at 1 µM [4]: 88%
- inhibition at 1 µM (histamine receptor H1): 7%
- inhibition at 1 µM [5]: 29%
- inhibition at 1 µM [6]: 104%
